A short description of data set [1]: Cytotoxicity against human Huh-7 cells assessed as reduction in cell viability by cellular ATP method. It counts as toxicity, cell-based.

For orientation: CC50 means the concentration giving 50% cytotoxicity. What is called IC50 is the concentration at which inhibition is half-maximal. Lower therefore signals greater potency in that assay.

`CN(C)CCOc1ccc(/C(=C(/CCCl)c2ccccc2)c2ccccc2)cc1` [TOREMIFENE]: the CC50 in data set [1] was 9.31 µM. Further, the 50% inhibitory concentration (IC50) in the data set “cells” came to 0.17 µM. On to `CC(C)(C)NC(=O)[C@@H]1C[C@@H]2CCCC[C@@H]2CN1C[C@H](O)CNCCc1ccc(Cl)cc1`, for which the CC50 in data set [1] amounted to 4.04 µM.

`CC(C)(C)NC(=O)[C@@H]1C[C@@H]2CCCC[C@@H]2CN1C[C@@H](O)[C@H](Cc1ccccc1)NC(=O)[C@H](CC(N)=O)NC(=O)c1ccc2ccccc2n1` displayed an IC50 in “cells” of 10.5 µM.

The record behind these values is ChEMBL document CHEMBL5113507, “Discovery of potent ebola entry inhibitors with (3S,4aS,8aS)-2-(3-amino-2-hydroxypropyl) decahydroisoquinoline-3-carboxamide scaffold” (Eur J Med Chem, 2022).
